Here are results for 18 compounds from patent publication US11123279B2, “Cosmetic composition and the use thereof for regulating skin quality” (priority 2016, dated 2021).

Converted amounts (≈) assume the structure as drawn. Where two headings read alike, the source gives them in different places.

The test system of series [1] is B16 melanocyte cells. Kind of series: B16 cell melanogenesis inhibition assay. Type of series: cell-based.
Series [2] has as its system B16 melanocyte cells. On the procedure:
Cytotoxicity activities to determine cell viability were obtained as follows. B16 melanocyte cells were plated in a 24 well-plate one day before the actual assay. Fresh DMEM (with phenol red) containing 10% FBS was added to dilute the cells to an appropriate density, 0.025×10^6 cells for a 24 well-plate. 1 ml of the DMEM with 10% FBS was added to each well. […] The well-plate with treated cells were then left in the incubator at 37° C., 5% CO2 for approximately 16 hours overnight. The media was removed and 1 ml of PBS solution was added into each well to wash and remove the colour of the phenol red in the DMEM. Then, 1 ml of fresh PBS was added into each individual well. 15 μl of the prepared Resazurin stock solution was added (8 μg/ml) into each well containing the compounds. The Resazurin stock solution was prepared by adding 800 μg of Resazurin sodium salt in 10 ml of PBS (pH 7.4) to make a concentration of 80 μg/ml, which was further diluted by adding 0.1 ml of the 80 μg/ml solution to 0.9 ml of PBS to make 8 μg/ml of stock solution. The well-plates were incubated at 37° C. for 2 hours. The plate was immediately read, after 2 hours, using a BioTek Synergy HTX multi-mode reader at an emission and excitation wavelength of 600 nm and 528 nm respectively, with a gain of 35. The results were automatically recorded in an excel spreadsheet.

Series [3] has as its system arm skin of Southeast Asian women. The settings on record: in vivo. The text has this:
The cream base used for blending the active ingredients contained the ingredients as follows: Aqua, Butyrospermum parkii, caprylic/capric triglyceride, C12-15 alkyl benzoate, cetearyl isononanoate, cyclomethicone, butylene glycol, hydroxyethyl acrylate, sodium dimethyl taurate copolymer, Aloe barbadensis leaf juice.

In a further series the test system is Pseudomonas aeruginosa. Kind of series: Antimicrobial activity, resistance of cream to microbial contamination. The class given is cell-based. The settings on record: tested individually at 0.05%.
A short description of series [4]: Viscosity measurement of creams. The class given is physicochemical. The settings on record: 0.5 wt % in base cream of 25,000 mPa·s. On the procedure:
Rheological properties of the creams with different cosmetic compositions were evaluated based on viscosity measurements. The individually tested samples were dissolved in a base cream (control) with a viscosity of 25,000 mPa·s. The cream base used for blending the active ingredients contained the ingredients as follows: Aqua, Butyrospermum parkii, caprylic/capric triglyceride, C12-15 alkyl benzoate, cetearyl isononanoate, cyclomethicone, butylene glycol, hydroxyethyl acrylate, sodium dimethyl taurate copolymer, Aloe barbadensis leaf juice. The cream base was white in colour, with a pH ranges between 4.5 and 5.5.

Series [5] has as its system arm skin of Southeast Asian women. In words: Subject self-assessment questionnaire and preference in the skin lightening study (Example 1). Type of series: in vivo, human. The settings on record: by day 14 of the trial. From the text:
Table V illustrates the ranking of the various compositions from best to worst based on user satisfaction measurements. The questionnaire was formulated to include the questions such as: 1) what were your first impressions after application of the various compositions? 2) How quickly do you expect to see a lightening effect? 3) Are you satisfied with the quality of skin lightening achieved? 4) How many days after the first application of the various compositions did you observe a lightening effect? 5) are you satisfied with the quality of skin lightening achieved? 6) How many days after the first application of the test product did you observe a lightening effect?

The test system of the next series is Indian and Chinese skins. In words: Skin tone (a*, b*) and general skin quality observation (Examples 5 and 6). The class given is in vivo, human. The note with it: Chinese skin and especially Indian skin. The protocol: […]. The a* (rosy-red tone) and b* (yellow tone) components of the skin tone were monitored.
Over the 28-day period, the a* (rosy-red tone) component of Indian skin increased, and the b* (yellow tone) component of Indian and Chinese skins decreased. […] Before starting the study, all subjects' melanin index, L*a*b* and ITA value were measured at the tested site using Mexameter MX18 and Courage+Khazaka (CK) Colorimeter CL 400. Photos and instrument measurements were taken at the start of the testing (Day 0), during the testing (D2, D5, D7, D9, D12) and after the testing (D14, D21 and D28). […] Each subject applied 5 products on the left arm. Subjects wore an arm sleeve over part of the right arm for the occluded site, so as to provide 2 negative controls, one occluded from light and UV-radiation (right arm) and one covered under fabric (left arm) so as to understand the effect of melanogenesis even when no light is passing through. The tested areas were evaluated on their skin melanin index, L*a*b* and ITA after D2, D5, D7, D9, D12, D14, D21 and D28 of application using Mexameter MX 18 and CK Colorimeter CL400.
As part of the same experiment above, general skin quality effects were also observed.

[6] abbreviates: B16 cultured melanocyte cells, 3 days incubation, melanin OD at 480 nm.
Where [7] appears, read: Melanocyte, 72 h, B16 cultured melanocyte cells, 3 days incubation, melanin OD at 480 nm; read-out: IC50, melanogenesis inhibition.
Where [8] appears, read: Melanocyte, 72 h; read-out: IC50, melanogenesis inhibition.

Take `CC1=CC(=O)[N-]S(=O)(=O)O1.[K+]` [Acesulphame K (ASK), Acesulphame K (Potassium Acesulphame)]: the IC50 in the series on B16 melanocyte cells [1] (Melanocyte, 72 h, read-out: IC50, melanogenesis inhibition) is 58 µg/mL.
In the case of `CC(=O)Oc1ccccc1C(=O)O` [Acetylsalicylic Acid, Acetyl Salicylic Acid], the “IC50, melanogenesis inhibition” value with B16 melanocyte cells [1] (setting [6]) turned out to be 0.262 g/L (≈ 1450 µM).
`O=C(O)c1cc(O)[nH]c(=O)c1` [Citrazinic Acid, Citrazinic acid]: the “IC50, melanogenesis inhibition” value in the series on B16 melanocyte cells [1] (setting [6]) was found to be 0.077 g/L (≈ 496 µM). Moreover, the IC50 in the series on B16 melanocyte cells [1] (setting [7]) was 59 to 262 µg/mL (≈ 380 to 1690 µM).
For `O=C1O[C@H]([C@H](O)CO)C(O)=C1O` [Erythorbic Acid], the IC50 in the series with B16 melanocyte cells [1] (setting [7]) came to 73 µg/mL (≈ 414 µM).
As for `CCc1occc(=O)c1O` [Ethyl Maltol], the “IC50, melanogenesis inhibition” value with B16 melanocyte cells [1] (setting [6]) was 0.059 g/L (≈ 421 µM). Also, the IC50 in the series on B16 melanocyte cells [1] (setting [7]) lay in the range of 59 to 262 µg/mL (≈ 421 to 1870 µM). Moreover, in the series on B16 melanocyte cells [2] (mouse), the “concentrations resulting in cell toxicity” value is “greater than 100 μM”.
In the case of `Nc1nc2[nH]cnc2c(=O)[nH]1` [Guanine], the IC50 with B16 melanocyte cells [1] (setting [8]) stood at 56 µg/mL (≈ 371 µM).
Regarding `Nc1nc2c(ncn2[C@@H]2O[C@H](COP(=O)(O)O)[C@@H](O)[C@H]2O)c(=O)[nH]1` [Guanosine Monophosphate, Guanosine Mono- phosphate], the IC50 in the series on B16 melanocyte cells [1] (setting [7]) was determined as 70 µg/mL.
As to `O=c1[nH]cnc2[nH]cnc12` [Hypoxanthine], the IC50 with B16 melanocyte cells [1] (setting [7]) came to 70 µg/mL (≈ 514 µM).
In the case of `O=c1[nH]c2ccccc2c(=O)o1` [Isatoic Anhydride], in the series with B16 melanocyte cells [1] (setting [8]), the IC50 came to 132 µg/mL (≈ 809 µM).
Turning to `O=c1cc(CO)occ1O` [Kojic acid (Standard), Kojic acid, reference compound], the IC50 in the series with B16 melanocyte cells [1] (setting [7]) was 51 µg/mL (≈ 359 µM).
In the case of `Cc1occc(=O)c1O` [Maltol, 3-hydroxy-2-methyl-4H-pyran-4-one], the “cytotoxic activities on intact human skin” value in series [3] was “no real cytotoxic activities”. Also, the IC50 in the series with B16 melanocyte cells [1] (setting [7]) is 65 µg/mL (≈ 515 µM). In addition, the “cytotoxic activities on B16 cells” value in the series with B16 melanocyte cells [2] was “no real cytotoxic activities”. Further, in the series with Pseudomonas aeruginosa, the “inhibition of the growth of P. aeruginosa” value was “completely inhibited”.
In the case of `O=C1NC(=O)c2ccccc21` [Phthalimide], in the series on B16 melanocyte cells [1] (setting [7]), the IC50 is 89 µg/mL (≈ 605 µM).
As for `O=C1NS(=O)(=O)c2ccccc21` [Saccharin, 2H-1lamda 6,2-benzothiazol-1,1,3-trione], in the series on B16 melanocyte cells [2], the “cytotoxic activities on B16 cells” value is reported as “no real cytotoxic activities”.
As for `Cn1cnc2c1c(=O)[nH]c(=O)n2C` [Theobromine], the IC50 with B16 melanocyte cells [1] (setting [7]) came out at 37 µg/mL (≈ 205 µM).
On to `O=c1cc[nH]c(=O)[nH]1` [Uracil], for which the IC50 in the series on B16 melanocyte cells [1] (setting [7]) was determined as 143 µg/mL (≈ 1280 µM).
`O=C1O[C@H]([C@@H](O)CO)C(O)=C1O[C@H]1O[C@H](CO)[C@@H](O)[C@H](O)[C@H]1O` [ascorbic acid-2-glucoside (AA2G), ascorbic acid-2-glucoside]: the “viscosity of the cream” value in series [4] is on record as 26,000 mPa·s.
On to `NC(=O)c1cccnc1` [niacinamide], for which the “subjects who observed and reported lightening of their skin” value in series [5] was 82%. In addition, the “effects on a* and b* skin tone compared with the maltol/saccharin cream” value with Indian and Chinese skins is reported as “diametrically opposite effects”.
As for “Dehydroacetic Acid [Dehydroacetic Acid (DHAA)]”, the “IC50, melanogenesis inhibition” value with B16 melanocyte cells [1] is 0.073 g/L.
